Where two headings read alike, the source gives them in different places.
How the values were obtained:
[1] = tested on: antibody core fucosylation; test: Inhibition of antibody core fucosylation by fucose analogs; type: cell-based
Text: Methods of determining whether a fucose analog is capable of having an effect on antibody core fucosylation is provided in WO 2012/019165.

[2] = tested on: NF-κB phospho-p65; test: Western blot of NF-κB phospho-p65 in liver nuclear extracts of sickle cell mice; type: in vivo, NY1DD sickle cell mice; conditions: heme-treated mice
Protocol: NY1DD sickle cell mice were given plain water or 20 or 100 mM 2-fluorofucose in their drinking water ad libitum for 7 days. The treatment and control group had four mice per treatment group. On day 7, the mice were sacrificed with CO2. An EDTA blood sample was collected from the heart and the liver was removed and frozen in liquid nitrogen. Total white blood cell counts and differentials were performed by manual counting using a hemocytometer and Wright-stained blood smears, respectively. Nuclear extracts were prepared from nuclei isolated from liver homogenates. Western blots of the nuclear extracts were immunostained with antibodies to NF-κB phospho-p65 a marker of NF-κB activation.

[3] = Table 2, 50 μM analog, read-out: Inhibition at 50 μM
[4] = Table 1, 50 μM analog, read-out: Inhibition at 50 μM

For 2-deoxy-2-fluorofucose diacetate, the “inhibition at 50 µM” value ([1]; Table 2, 50 μM analog) was >80% and the “Inhibition at 1 mM” value ([1]; Table 2, 1 mM analog) was >80%.

With 2-deoxy-2-fluorofucose peracetate the “inhibition at 50 µM” value ([1]; Table 2, 50 μM analog) was >80% and the “Inhibition at 1 mM” value ([1]; Table 2, 1 mM analog) was >80%.

With 5-Benzyloxy fucose peracetate the “inhibition at 50 µM” value ([1]; Table 2, 50 μM analog) was 0% and the “Inhibition at 1 mM” value ([1]; Table 2, 1 mM analog) was 75%.

In the case of `CC(=O)OC1C(C)OC(F)C(F)C1OC(C)=O` (stereo not shown) [1,2-difluoro-1,2-didexoy fucose peracetate], the “inhibition at 50 µM” value ([1]; Table 2, 50 μM analog) is reported as >80% and the “Inhibition at 1 mM” value ([1]; Table 2, 1 mM analog) is reported as >80%.

`C#C[C@H](OC(C)=O)[C@H]1OC(OC)[C@@H](OC(C)=O)[C@@H]1OC(C)=O` (stereo partly shown) [1-methyl-2,3,4-triacetyl alkynyl fucose] was tested, and the “inhibition at 50 µM” value ([1]; Table 1, 50 μM analog) was 68% and the “Inhibition at 1 mM” value ([1]; Table 1, 1 mM analog) was >80%.

For `CC(=O)OC1O[C@@H](C)[C@@H](OC(C)=O)[C@@H](OC(C)=O)C1(F)F` (stereo partly drawn) [2-deoxy-2,2-difluorofucopyranose triacetate (beta)], the “inhibition at 50 µM” value ([1]; Table 2, 50 μM analog) was 0% and the “Inhibition at 1 mM” value ([1]; Table 2, 1 mM analog) was 75%.

`CC(=O)OC1O[C@@H](C)[C@@H](OC(C)=O)[C@@H](OC(C)=O)C1(F)F` (stereo partly shown) [2-deoxy-2,2-difluorofucopyranose triacetate] was tested, and the inhibition at 50 µM [1, 3] was 0% and the inhibition at 1000 µM ([1]; Table 2, 1 mM analog) was 64%.

`CC(=O)OC(C#N)[C@H]1OC(OC(C)=O)[C@@H](OC(C)=O)[C@@H]1OC(C)=O` (stereo partly shown) [5-cyanoarabinofuranose tetraacetate] showed an inhibition at 50 µM [1, 4] of 5 to 10%.

`CC(=O)OC1OC(C#N)[C@@H](OC(C)=O)[C@@H](OC(C)=O)[C@@H]1OC(C)=O` (stereo partly shown) [5-cyanoarabinopyranose tetraacetate] showed an inhibition at 50 µM [1, 4] of 20%.

`CC(=O)OC1O[C@@H]([C@]2(C)CO2)[C@@H](OC(C)=O)[C@@H](OC(C)=O)[C@@H]1OC(C)=O` (stereo partly drawn) [5-methyloxiran-arabinose tetraacetate, (3S,4R,5S,6R)-6-((S)-2-methyloxiran-2-yl)-tetrahydro-2H-pyran-2,3,4,5-tetrayl tetraacetate] gave an inhibition at 50 µM [1, 4] of ~0% and an inhibition at 1000 µM ([1]; Table 1, 1 mM analog) of 35 to 40%.

For `CC#CC(OC(C)=O)[C@@H](OC(C)=O)[C@@H](OC(C)=O)[C@@H](C=O)OC(C)=O` (stereo partly shown) [5-propynyl fucose tetraacetate, 5-propynylarabinose tetraacetate], the inhibition at 50 µM [1, 4] was 50% and the inhibition at 1000 µM ([1]; Table 1, 1 mM analog) was > 80%.

`C=CC1OC(OC(C)=O)C(OC(C)=O)C(OC(C)=O)C1OC(C)=O` (stereo not shown) [5-vinyl fucose tetraacetate, 5-ethylenylarabinose tetraacetate] was tested, and the “inhibition at 50 µM” value ([1]; Table 1, 50 μM analog) was ~0% and the “Inhibition at 1 mM” value ([1]; Table 1, 1 mM analog) was ~4%.

With `CC(=O)O[C@H]([C@H](OC(C)=O)[C@@H](OC(C)=O)C(F)F)[C@@H](C=O)OC(C)=O` [6,6-difluorofucose tetraacetate] the inhibition at 50 µM [1, 3] was > 80% and the inhibition at 1000 µM ([1]; Table 2, 1 mM analog) was > 80%.

With `CC(=O)O[C@H]([C@H](OC(C)=O)[C@H](CBr)OC(C)=O)[C@@H](C=O)OC(C)=O` [6-bromo-fucose tetraacetate, 6-bromofucose tetraacetate] the inhibition at 50 µM [1, 4] was 50% and the inhibition at 1000 µM ([1]; Table 1, 1 mM analog) was 80%.

For `CC(=O)O[C@H]([C@H](OC(C)=O)[C@H](CCl)OC(C)=O)[C@@H](C=O)OC(C)=O` [6-chloro-fucose tetraacetate, 6-chlorofucose tetraacetate], the inhibition at 50 µM [1, 4] was 20% and the inhibition at 1000 µM ([1]; Table 1, 1 mM analog) was 20 to 30%.

In the case of `CC(=O)O[C@H]([C@H](OC(C)=O)[C@H](CC#N)OC(C)=O)[C@@H](C=O)OC(C)=O` [6-cyano fucose tetraacetate, 6-cyanofucose tetraacetate], the inhibition at 50 µM [1, 4] is reported as 30% and the inhibition at 1000 µM ([1]; Table 1, 1 mM analog) is reported as > 80%.

Work on `CC(=O)O[C@H]([C@H](OC(C)=O)[C@H](CI)OC(C)=O)[C@@H](C=O)OC(C)=O` [6-iodo-fucose tetraacetate, 6-iodofucose tetraacetate] yielded an inhibition at 50 µM [1, 4] of 3% and an inhibition at 1000 µM ([1]; Table 1, 1 mM analog) of 30%.

`CC(=O)OC1CC(OC(C)=O)C(OC(C)=O)C(C)O1` (stereo not shown) [6-methyl-tetrahydro-2H-pyran-2,4,5-triyl triacetate] showed an inhibition at 50 µM [1, 3] of 0% and an inhibition at 1000 µM ([1]; Table 2, 1 mM analog) of 36%.

For `C#CC1OC(OC(=O)C(C)(C)C)C(OC(=O)C(C)(C)C)C(OC(=O)C(C)(C)C)C1O` (stereo not shown) [Alkynyl fucose 1,2,3-(trimethylacetate), 5-ethynylarabinose 1,2,3-(trimethylacetate)], the “inhibition at 50 µM” value ([1]; Table 1, 50 μM analog) was ~0%.

`C#CC1OC(OC(=O)C(C)(C)C)C(O)C(OC(=O)C(C)(C)C)C1O` (stereo not shown) [Alkynyl fucose di(trimethylacetate), 5-ethynylarabinose 1,3-(trimethylacetate)] was tested, and the “inhibition at 50 µM” value ([1]; Table 1, 50 μM analog) was >80%.

With `C#CC(OC(C)=O)[C@@H](OC(C)=O)[C@@H](OC(C)=O)[C@@H](C=O)OC(C)=O` (stereo partly shown) [Alkynyl fucose peracetate, 5-ethynylarabinose tetraacetate] the inhibition at 50 µM [1, 4] was > 80% and the inhibition at 1000 µM ([1]; Table 1, 1 mM analog) was > 80%.

In the case of `C#C[C@@H]1OC(OC(=O)C(C)C)[C@@H](OC(=O)C(C)C)[C@H](OC(=O)C(C)C)[C@@H]1OC(=O)C(C)C` (stereo partly shown) [Alkynyl fucose perisobutanoate], the “inhibition at 50 µM” value ([1]; Table 1, 50 μM analog) is reported as >80% and the “Inhibition at 1 mM” value ([1]; Table 1, 1 mM analog) is reported as >80%.

For `C#C[C@H]1OC(OC(=O)c2ccncc2)[C@@H](OC(=O)c2ccncc2)[C@H](OC(=O)c2ccncc2)[C@@H]1OC(=O)c1ccncc1` (stereo partly shown) [Alkynyl fucose perisonicotinate], the “inhibition at 50 µM” value ([1]; Table 1, 50 μM analog) was >80% and the “Inhibition at 1 mM” value ([1]; Table 1, 1 mM analog) was >80%.

In the case of `C#CC1OC(OC(=O)c2cccnc2)C(OC(=O)c2cccnc2)C(OC(=O)c2cccnc2)C1OC(=O)c1cccnc1` (stereo not shown) [Alkynyl fucose pernicotinate], the “inhibition at 50 µM” value ([1]; Table 1, 50 μM analog) is reported as >80% and the “Inhibition at 1 mM” value ([1]; Table 1, 1 mM analog) is reported as >80%.

For `C#CC(OC(=O)CCCCC)[C@@H](OC(=O)CCCCC)[C@@H](OC(=O)CCCCC)[C@@H](C=O)OC(=O)CCCCC` (stereo partly shown) [Alkynyl fucose tetra-n-hexanoate, 5-ethynylarabinose tetrahexanoate], the inhibition at 50 µM [1, 4] was > 80% and the inhibition at 1000 µM ([1]; Table 1, 1 mM analog) was > 80%.

With `C#C[C@@H]1OC(OC(=O)CC)[C@@H](OC(=O)CC)[C@H](OC(=O)CC)[C@@H]1OC(=O)CC` (stereo partly shown) [Alkynyl fucose tetrapropanonate, 5-ethynylarabinose tetrapropropanoate] the “inhibition at 50 µM” value ([1]; Table 1, 50 μM analog) was >80% and the “Inhibition at 1 mM” value ([1]; Table 1, 1 mM analog) was >80%.

For `C#CC(O)[C@@H](O)[C@@H](O)[C@H](O)C=O` (stereo partly shown) [Alkynyl fucose, 5-ethynylarabinose], the inhibition at 50 µM [1, 4] was > 80%.

`C#CC[C@@H]1OC(OC(C)=O)[C@@H](OC(C)=O)[C@H](OC(C)=O)[C@@H]1OC(C)=O` (stereo partly drawn) [propargyl fucose tetraacetate, (3S,4R,5R,6S)-6-(prop-2-ynyl)-tetrahydro-2H-pyran-2,3,4,5-tetrayl tetraacetate] showed an inhibition at 50 µM [1, 4] of ~10% and an inhibition at 1000 µM ([1]; Table 1, 1 mM analog) of 10 to 20%.

In the case of hemin [heme, reference compound], the “Nuclear NF-κB phospho-p65 in liver” value [2] is reported as “markedly decreased”.
